From ChEMBL document CHEMBL5729174, “Substituted benzofuran, benzopyrrole, benzothiophene, and structurally related complement inhibitors” (2022)

biological target: Complement factor D (Homo sapiens, UniProt P00746); assay: Factor D Esterolytic Assay: An established esterolytic assay for the measurement of Factor D activity and inhibition of Factor D activity was used (Kam, C. M.; McRae, B. J.; Harper, J. W.; Niemann, M. A.; Volanakis, J. E.; Powers, J. C. Human complement proteins D, C2, and B Active site mapping with peptide thioester substrates. J Biol. Chem. 1987, 262, 3444-3451). For this assay Z-Lys-SBzl, 1.29 mM (Kim, S.; Narayana, S. V. L; Volanakis, J. E. Mutational analysis of the substrate binding site of human complement Factor D. Biochemistry. 1994, 33, 14393-14399.) was used as the substrate for Factor D ([…]). Hydrolysis of this compound by Factor D liberated a free sulfhydryl group which is then reacted with 5,5′-dithiobis(2nitrobenzoic acid) producing an intense yellow color (Habeeb, A. F. S. A. Reaction of protein sulfhydryl groups with Ellman's Reagent. Methods in Enzymol. 1976, 25, 457-464). The assays were performed in 96 well microtiter plates and rates of hydrolysis were monitored at 405 nm on a Biotek Synergy H1 plate reader. Hydrolysis rates were reported as change in mOD/min. The assay was conducted in 100 mM HEPES, 500 mM NaCl, pH 7.5 containing 10% DMSO in a final volume of 50 μL per well.
Sequence (P00746 whole entry): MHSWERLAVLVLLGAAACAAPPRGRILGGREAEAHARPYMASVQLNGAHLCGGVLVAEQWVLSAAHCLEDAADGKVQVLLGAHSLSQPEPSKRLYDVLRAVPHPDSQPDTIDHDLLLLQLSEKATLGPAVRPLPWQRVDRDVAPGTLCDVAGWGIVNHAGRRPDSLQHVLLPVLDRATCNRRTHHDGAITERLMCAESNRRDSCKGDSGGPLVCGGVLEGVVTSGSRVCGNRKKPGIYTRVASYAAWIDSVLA

IC50 | SMILES
< 1000 nM | CS(=O)(=O)n1ccc2c(-c3ccnc(CN)c3F)cc(COc3ccccc3CC(=O)O)cc21
< 1000 nM | NCc1cccc(-c2cc(COc3ccc(F)cc3CC(=O)O)cc3ccoc23)c1F
< 1000 nM | NCc1nccc(-c2cc(COc3ccccc3CC(=O)O)cc3c2ccn3S(=O)(=O)C2CC2)c1F
< 1000 nM | NCc1cccc(-c2cc(COc3ccccc3CC(=O)O)cc3cc[nH]c23)c1
